# According to paper PMC6886798, “Expression of myeloid Src-family kinases is associated with poor prognosis in AML and influences Flt3-ITD kinase inhibitor acquired resistance” (PLoS ONE, 2019):
# Experiments:
# Experiment in all cases: KINOMEscan
# Format in all cases: binding
# Details in all cases: 1.0 µM
# DCAMKL2 = target: T1, DCAMKL2 (Homo sapiens, UniProt Q8N568)
# T1 construct: purchased Eurofins/DiscoverX KINOMEscan scanMAX
# Method: (§1) Kinase retention to the immobilized ligand is then measured using quantitative real-time PCR for each kinase-specific DNA barcode.
# ROCK2 = target: T2, ROCK2 (Homo sapiens, UniProt O75116)
# T2 construct: purchased Eurofins/DiscoverX KINOMEscan scanMAX
# Method: as §1
# ABL1-phosphorylated = target: T3, ABL1-phosphorylated (Homo sapiens, UniProt P00519)
# T3 construct: purchased Eurofins/DiscoverX KINOMEscan scanMAX
# Method: as §1
# RIOK3 = target: T4, RIOK3 (Homo sapiens, UniProt O14730)
# T4 construct: purchased Eurofins/DiscoverX KINOMEscan scanMAX
# Method: as §1
# RIPK5 = target: T5, RIPK5 (Homo sapiens, UniProt Q6XUX3)
# T5 construct: purchased Eurofins/DiscoverX KINOMEscan scanMAX
# Method: as §1
# MAP4K5 = target: T6, MAP4K5 (Homo sapiens, UniProt Q9Y4K4)
# T6 construct: purchased Eurofins/DiscoverX KINOMEscan scanMAX
# Method: as §1
# GSK3A = target: T7, GSK3A (Homo sapiens, UniProt P49840)
# T7 construct: purchased Eurofins/DiscoverX KINOMEscan scanMAX
# Method: as §1
# CHEK2 = target: T8, CHEK2 (Homo sapiens, UniProt O96017)
# T8 construct: purchased Eurofins/DiscoverX KINOMEscan scanMAX
# Method: as §1
# YSK4 = target: T9, YSK4 (Homo sapiens, UniProt Q56UN5)
# T9 construct: purchased Eurofins/DiscoverX (KINOMEscan scanMAX service)
# Method: as §1
# TYRO3 = target: T10, TYRO3 (Homo sapiens, UniProt Q06418)
# T10 construct: DNA tag (qPCR barcode); purchased Eurofins/DiscoverX KINOMEscan scanMAX
# Method: as §1
# CAMK2D = target: T11, CAMK2D (Homo sapiens, UniProt Q13557)
# T11 construct: purchased Eurofins/DiscoverX KINOMEscan scanMAX
# Method: as §1
# PIK3CD = target: T12, PIK3CD (Homo sapiens, UniProt O00329)
# T12 construct: purchased Eurofins/DiscoverX KINOMEscan scanMAX
# Method: as §1
# DRAK2 = target: T13, DRAK2 (Homo sapiens, UniProt O94768)
# T13 construct: purchased Eurofins/DiscoverX KINOMEscan scanMAX
# Method: as §1
# AKT2 = target: T14, AKT2 (Homo sapiens, UniProt P31751)
# T14 construct: purchased Eurofins/DiscoverX KINOMEscan scanMAX
# Method: as §1
# CDK3 = target: T15, CDK3 (Homo sapiens, UniProt Q00526)
# T15 construct: purchased Eurofins/DiscoverX KINOMEscan scanMAX
# Method: as §1
# PIM1 = target: T16, PIM1 (Homo sapiens, UniProt P11309)
# T16 construct: purchased Eurofins/DiscoverX KINOMEscan scanMAX
# Method: as §1
# CAMK2G = target: T17, CAMK2G (Homo sapiens, UniProt Q13555)
# T17 construct: purchased Eurofins/DiscoverX KINOMEscan scanMAX
# Method: as §1
# LATS2 = target: T18, LATS2 (Homo sapiens, UniProt Q9NRM7)
# T18 construct: purchased Eurofins/DiscoverX KINOMEscan scanMAX
# Method: as §1
# ARK5 = target: T19, ARK5 (Homo sapiens, UniProt O60285)
# T19 construct: purchased Eurofins/DiscoverX KINOMEscan scanMAX
# Method: as §1
# STK33 = target: T20, STK33 (Homo sapiens, UniProt Q9BYT3)
# T20 construct: purchased Eurofins/DiscoverX KINOMEscan scanMAX
# Method: as §1
# [1] = target: T21, ABL1(F317L)-phosphorylated (Homo sapiens, UniProt P00519, F317L)
# T21 construct: purchased Eurofins/DiscoverX KINOMEscan scanMAX
# Method: as §1
# EPHA1 = target: T22, EPHA1 (Homo sapiens, UniProt P21709)
# T22 construct: purchased Eurofins/DiscoverX KINOMEscan scanMAX
# Method: as §1
# [2] = target: T23, RSK3(Kin.Dom.2-C-terminal) (Homo sapiens, UniProt Q15349)
# T23 construct: RSK3(Kin.Dom.2-C-terminal); purchased Eurofins/DiscoverX KINOMEscan scanMAX
# Method: as §1
# MYO3B = target: T24, MYO3B (Homo sapiens, UniProt Q8WXR4)
# T24 construct: purchased Eurofins/DiscoverX KINOMEscan scanMAX
# Method: as §1
# ACVR1 = target: T25, ACVR1 (Homo sapiens, UniProt Q04771)
# T25 construct: purchased Eurofins/DiscoverX KINOMEscan scanMAX
# Method: as §1
# CAMK2A = target: T26, CAMK2A (Homo sapiens, UniProt Q9UQM7)
# T26 construct: purchased Eurofins/DiscoverX KINOMEscan scanMAX
# Method: as §1
# CDKL1 = target: T27, CDKL1 (Homo sapiens, UniProt Q00532)
# T27 construct: purchased Eurofins/DiscoverX KINOMEscan scanMAX
# Method: as §1
# ULK1 = target: T28, ULK1 (Homo sapiens, UniProt O75385)
# T28 construct: DNA tag (qPCR barcode); purchased Eurofins/DiscoverX KINOMEscan scanMAX
# Method: as §1
# CDC2L2 = target: T29, CDC2L2 (Homo sapiens, UniProt Q9UQ88)
# T29 construct: purchased Eurofins/DiscoverX KINOMEscan scanMAX
# Method: as §1
# MKK7 = target: T30, MKK7 (Homo sapiens, UniProt O14733)
# T30 construct: purchased Eurofins/DiscoverX KINOMEscan scanMAX
# Method: as §1
# ERK5 = target: T31, ERK5 (Homo sapiens, UniProt Q13164)
# T31 construct: purchased Eurofins/DiscoverX KINOMEscan scanMAX
# Method: as §1
# CAMK1G = target: T32, CAMK1G (Homo sapiens, UniProt Q96NX5)
# T32 construct: purchased Eurofins/DiscoverX KINOMEscan scanMAX
# Method: as §1
# RIOK2 = target: T33, RIOK2 (Homo sapiens, UniProt Q9BVS4)
# T33 construct: purchased Eurofins/DiscoverX KINOMEscan scanMAX
# Method: as §1
# FRK = target: T34, FRK (Homo sapiens, UniProt P42685)
# T34 construct: purchased Eurofins/DiscoverX KINOMEscan scanMAX
# Method: as §1
# [3] = target: T35, RPS6KA4(Kin.Dom.2-C-terminal) (Homo sapiens, UniProt O75676)
# T35 construct: RPS6KA4(Kin.Dom.2-C-terminal); purchased Eurofins/DiscoverX KINOMEscan scanMAX
# Method: as §1
# FGFR2 = target: T36, FGFR2 (Homo sapiens, UniProt P21802)
# T36 construct: purchased Eurofins/DiscoverX KINOMEscan scanMAX
# Method: as §1
# RIPK1 = target: T37, RIPK1 (Homo sapiens, UniProt Q13546)
# T37 construct: purchased Eurofins/DiscoverX KINOMEscan scanMAX
# Method: as §1
# MAP4K4 = target: T38, MAP4K4 (Homo sapiens, UniProt O95819)
# T38 construct: purchased Eurofins/DiscoverX KINOMEscan scanMAX
# Method: as §1
# WNK4 = target: T39, WNK4 (Homo sapiens, UniProt Q96J92)
# T39 construct: DNA tag (qPCR barcode); purchased Eurofins/DiscoverX KINOMEscan scanMAX
# Method: as §1
# CLK3 = target: T40, CLK3 (Homo sapiens, UniProt P49761)
# T40 construct: purchased Eurofins/DiscoverX KINOMEscan scanMAX
# Method: as §1
# FLT3(D835V) = target: T41, FLT3(D835V) (Homo sapiens, UniProt P36888, D835V)
# T41 construct: purchased Eurofins/DiscoverX KINOMEscan scanMAX
# Method: as §1
# T3 sequence (P00519 whole entry): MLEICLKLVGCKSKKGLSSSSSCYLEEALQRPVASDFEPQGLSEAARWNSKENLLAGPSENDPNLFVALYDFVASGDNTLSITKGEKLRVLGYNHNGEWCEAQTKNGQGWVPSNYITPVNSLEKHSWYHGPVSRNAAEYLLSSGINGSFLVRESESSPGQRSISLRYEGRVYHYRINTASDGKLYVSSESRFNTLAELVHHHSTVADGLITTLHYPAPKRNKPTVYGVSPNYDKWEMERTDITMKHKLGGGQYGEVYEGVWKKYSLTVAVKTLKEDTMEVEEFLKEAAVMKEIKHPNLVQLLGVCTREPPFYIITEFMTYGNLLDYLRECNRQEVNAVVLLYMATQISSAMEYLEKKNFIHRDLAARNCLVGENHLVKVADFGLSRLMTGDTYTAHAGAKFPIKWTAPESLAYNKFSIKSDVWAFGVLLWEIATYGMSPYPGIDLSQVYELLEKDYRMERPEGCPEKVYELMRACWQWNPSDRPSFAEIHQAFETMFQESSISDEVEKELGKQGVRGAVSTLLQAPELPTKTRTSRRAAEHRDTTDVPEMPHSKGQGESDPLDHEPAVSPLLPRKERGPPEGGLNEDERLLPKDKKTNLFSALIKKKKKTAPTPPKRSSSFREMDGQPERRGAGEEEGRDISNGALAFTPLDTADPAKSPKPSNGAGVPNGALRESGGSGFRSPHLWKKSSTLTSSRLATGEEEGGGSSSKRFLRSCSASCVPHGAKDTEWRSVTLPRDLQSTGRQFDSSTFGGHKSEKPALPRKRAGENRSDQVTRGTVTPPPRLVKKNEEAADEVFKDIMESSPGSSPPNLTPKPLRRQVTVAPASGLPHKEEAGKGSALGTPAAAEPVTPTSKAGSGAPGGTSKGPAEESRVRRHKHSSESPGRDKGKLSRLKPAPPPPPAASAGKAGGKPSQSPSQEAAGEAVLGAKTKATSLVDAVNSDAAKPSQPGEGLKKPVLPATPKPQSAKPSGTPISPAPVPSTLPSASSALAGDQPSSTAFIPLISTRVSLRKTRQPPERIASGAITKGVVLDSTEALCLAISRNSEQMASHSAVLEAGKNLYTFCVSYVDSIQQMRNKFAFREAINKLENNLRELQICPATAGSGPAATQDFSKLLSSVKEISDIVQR
# T38 sequence (O95819 whole entry): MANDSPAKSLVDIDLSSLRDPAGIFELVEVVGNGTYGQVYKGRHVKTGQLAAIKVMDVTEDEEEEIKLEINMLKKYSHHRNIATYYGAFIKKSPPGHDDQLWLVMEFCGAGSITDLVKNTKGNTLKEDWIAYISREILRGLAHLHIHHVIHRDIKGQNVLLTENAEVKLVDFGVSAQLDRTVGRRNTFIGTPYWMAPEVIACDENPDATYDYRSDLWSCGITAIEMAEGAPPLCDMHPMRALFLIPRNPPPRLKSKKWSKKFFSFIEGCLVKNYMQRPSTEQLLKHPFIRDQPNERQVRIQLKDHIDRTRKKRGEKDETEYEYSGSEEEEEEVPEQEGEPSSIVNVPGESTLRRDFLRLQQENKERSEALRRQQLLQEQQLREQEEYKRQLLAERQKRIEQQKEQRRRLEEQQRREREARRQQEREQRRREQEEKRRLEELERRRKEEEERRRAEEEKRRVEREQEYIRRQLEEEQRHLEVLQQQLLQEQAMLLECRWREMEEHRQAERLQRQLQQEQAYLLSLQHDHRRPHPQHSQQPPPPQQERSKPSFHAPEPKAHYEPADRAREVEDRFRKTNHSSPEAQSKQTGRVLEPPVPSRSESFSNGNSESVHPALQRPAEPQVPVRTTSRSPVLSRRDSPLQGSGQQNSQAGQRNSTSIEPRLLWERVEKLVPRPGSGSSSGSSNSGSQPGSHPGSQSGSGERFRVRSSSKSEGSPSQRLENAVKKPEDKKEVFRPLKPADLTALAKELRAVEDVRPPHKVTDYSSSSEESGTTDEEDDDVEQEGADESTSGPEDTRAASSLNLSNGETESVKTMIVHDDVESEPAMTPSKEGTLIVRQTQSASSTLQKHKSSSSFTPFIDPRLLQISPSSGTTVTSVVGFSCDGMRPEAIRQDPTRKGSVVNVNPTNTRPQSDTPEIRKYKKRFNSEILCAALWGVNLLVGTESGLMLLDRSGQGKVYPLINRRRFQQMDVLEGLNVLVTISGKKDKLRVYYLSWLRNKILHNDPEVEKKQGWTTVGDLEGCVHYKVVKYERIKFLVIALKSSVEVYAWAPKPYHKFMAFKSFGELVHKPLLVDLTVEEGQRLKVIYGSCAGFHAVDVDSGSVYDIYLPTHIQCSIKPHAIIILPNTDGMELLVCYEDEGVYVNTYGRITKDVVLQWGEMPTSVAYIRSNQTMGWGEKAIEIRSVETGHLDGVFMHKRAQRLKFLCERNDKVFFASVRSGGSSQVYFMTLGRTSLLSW
# T2 sequence (O75116 whole entry): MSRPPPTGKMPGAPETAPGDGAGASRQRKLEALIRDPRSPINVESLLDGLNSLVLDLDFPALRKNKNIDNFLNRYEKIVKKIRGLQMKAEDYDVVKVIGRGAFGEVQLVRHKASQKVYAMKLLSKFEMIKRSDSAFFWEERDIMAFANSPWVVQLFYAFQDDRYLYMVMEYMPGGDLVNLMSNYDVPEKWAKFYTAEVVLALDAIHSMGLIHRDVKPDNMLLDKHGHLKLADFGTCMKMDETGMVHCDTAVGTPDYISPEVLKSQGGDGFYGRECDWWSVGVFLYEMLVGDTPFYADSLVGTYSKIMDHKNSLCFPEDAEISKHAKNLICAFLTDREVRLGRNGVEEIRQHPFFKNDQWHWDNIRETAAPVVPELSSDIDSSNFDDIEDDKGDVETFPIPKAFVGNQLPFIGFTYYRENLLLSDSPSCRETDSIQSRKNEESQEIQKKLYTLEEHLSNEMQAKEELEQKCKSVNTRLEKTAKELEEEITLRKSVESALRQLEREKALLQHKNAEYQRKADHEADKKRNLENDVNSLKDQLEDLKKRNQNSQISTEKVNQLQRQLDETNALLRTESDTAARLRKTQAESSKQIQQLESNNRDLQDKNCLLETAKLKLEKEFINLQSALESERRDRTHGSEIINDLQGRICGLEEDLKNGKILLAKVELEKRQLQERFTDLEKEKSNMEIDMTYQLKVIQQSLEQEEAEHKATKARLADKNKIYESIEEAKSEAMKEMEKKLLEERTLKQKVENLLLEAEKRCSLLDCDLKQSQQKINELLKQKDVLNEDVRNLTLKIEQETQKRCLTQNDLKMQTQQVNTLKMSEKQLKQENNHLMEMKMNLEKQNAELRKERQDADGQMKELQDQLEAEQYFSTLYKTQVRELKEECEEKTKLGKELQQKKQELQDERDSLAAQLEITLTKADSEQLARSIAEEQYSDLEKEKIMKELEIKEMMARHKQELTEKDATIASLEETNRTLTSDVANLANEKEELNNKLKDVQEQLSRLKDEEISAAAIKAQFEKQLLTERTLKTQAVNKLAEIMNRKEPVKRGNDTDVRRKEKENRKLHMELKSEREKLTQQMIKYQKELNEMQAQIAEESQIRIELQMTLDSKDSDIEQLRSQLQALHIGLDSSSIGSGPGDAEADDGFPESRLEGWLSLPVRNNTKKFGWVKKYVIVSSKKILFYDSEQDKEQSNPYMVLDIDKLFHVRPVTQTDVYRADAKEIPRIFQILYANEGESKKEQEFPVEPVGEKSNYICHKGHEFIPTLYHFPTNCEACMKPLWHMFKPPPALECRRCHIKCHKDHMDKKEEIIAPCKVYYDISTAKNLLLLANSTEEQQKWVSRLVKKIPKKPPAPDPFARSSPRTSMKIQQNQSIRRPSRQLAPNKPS
# T18 sequence (Q9NRM7 whole entry): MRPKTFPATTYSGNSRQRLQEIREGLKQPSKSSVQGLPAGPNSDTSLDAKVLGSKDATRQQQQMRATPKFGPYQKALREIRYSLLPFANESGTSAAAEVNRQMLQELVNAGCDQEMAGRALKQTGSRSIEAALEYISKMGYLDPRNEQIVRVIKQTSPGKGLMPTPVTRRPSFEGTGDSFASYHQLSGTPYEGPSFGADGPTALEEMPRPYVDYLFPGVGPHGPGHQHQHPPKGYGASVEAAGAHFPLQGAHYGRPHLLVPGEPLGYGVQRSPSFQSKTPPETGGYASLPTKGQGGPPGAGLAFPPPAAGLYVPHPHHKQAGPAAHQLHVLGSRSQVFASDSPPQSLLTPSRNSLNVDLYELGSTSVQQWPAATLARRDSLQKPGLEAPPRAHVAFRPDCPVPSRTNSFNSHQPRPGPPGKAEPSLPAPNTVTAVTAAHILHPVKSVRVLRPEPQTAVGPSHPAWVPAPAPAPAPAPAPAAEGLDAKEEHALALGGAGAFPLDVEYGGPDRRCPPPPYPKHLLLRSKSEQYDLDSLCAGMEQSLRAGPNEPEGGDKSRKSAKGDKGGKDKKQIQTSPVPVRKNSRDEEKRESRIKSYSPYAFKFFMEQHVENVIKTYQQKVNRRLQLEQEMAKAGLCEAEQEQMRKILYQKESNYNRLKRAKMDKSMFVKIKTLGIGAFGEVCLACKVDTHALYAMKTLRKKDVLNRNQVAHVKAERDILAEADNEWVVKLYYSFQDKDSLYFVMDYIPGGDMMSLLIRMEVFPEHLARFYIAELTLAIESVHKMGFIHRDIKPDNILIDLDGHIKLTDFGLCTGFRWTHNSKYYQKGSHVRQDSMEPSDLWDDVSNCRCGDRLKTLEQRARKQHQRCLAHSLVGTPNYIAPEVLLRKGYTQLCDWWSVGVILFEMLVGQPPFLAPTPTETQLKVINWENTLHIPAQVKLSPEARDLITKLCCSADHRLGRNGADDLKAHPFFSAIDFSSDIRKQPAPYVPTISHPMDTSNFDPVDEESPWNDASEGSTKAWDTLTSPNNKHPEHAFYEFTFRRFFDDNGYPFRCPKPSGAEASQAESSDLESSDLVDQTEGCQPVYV
# T35 sequence (O75676 411-674 limits assumed): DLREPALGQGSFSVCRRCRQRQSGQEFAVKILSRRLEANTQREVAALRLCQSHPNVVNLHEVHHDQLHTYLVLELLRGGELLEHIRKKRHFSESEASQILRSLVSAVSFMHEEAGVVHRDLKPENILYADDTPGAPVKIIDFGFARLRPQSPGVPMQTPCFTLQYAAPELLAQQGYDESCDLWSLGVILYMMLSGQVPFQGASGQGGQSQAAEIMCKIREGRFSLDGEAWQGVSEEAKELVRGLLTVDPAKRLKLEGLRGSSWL
compound,measurement,setting,value
CN1CCN(C2CCC(n3cc(-c4ccc(Oc5ccccc5)cc4)c4c(N)ncnc43)CC2)CC1 (centres unmarked) [A-419259],% Control,DCAMKL2,87%
same,% Control,ROCK2,62%
same,% Control,ABL1-phosphorylated,0.25%
same,% Control,RIOK3,64%
same,% Control,RIPK5,7.1%
same,% Control,MAP4K5,9.2%
same,% Control,GSK3A,100%
same,% Control,CHEK2,40%
same,% Control,YSK4,58%
same,% Control,TYRO3,66%
same,% Control,CAMK2D,100%
same,% Control,PIK3CD,100%
same,% Control,DRAK2,93%
same,% Control,AKT2,92%
same,% Control,CDK3,99%
same,% Control,PIM1,100%
same,% Control,CAMK2G,100%
same,% Control,LATS2,18%
same,% Control,ARK5,90%
same,% Control,STK33,30%
same,% Control,[1],0%
same,% Control,EPHA1,58%
same,% Control,[2],100%
same,% Control,MYO3B,17%
same,% Control,ACVR1,100%
same,% Control,CAMK2A,88%
same,% Control,CDKL1,99%
same,% Control,ULK1,99%
same,% Control,CDC2L2,91%
same,% Control,MKK7,46%
same,% Control,ERK5,58%
same,% Control,CAMK1G,100%
same,% Control,RIOK2,100%
same,% Control,FRK,5.3%
same,% Control,[3],99%
same,% Control,FGFR2,39%
same,% Control,RIPK1,100%
same,% Control,MAP4K4,83%
same,% Control,WNK4,39%
same,% Control,CLK3,100%
same,% Control,FLT3(D835V),0.15%
